A short description of this data set: Solubility of HA.

A value given as a limit tells only on which side of the number the result lay.

As for hyaluronan [HA], the “Concentration of HA solutions that can be prepared” value was ≥ 20000 µg/mL.

These data come from US9012395B2, “Treatment of extracellular matrix to reduce inflammation” (The Cleveland Clinic Foundation, priority 2011, dated 2015).
